Reference: ChEMBL document CHEMBL1641529, “Novel 9a,11-bridged azalides: One-pot synthesis of N'-substituted 2-imino-1,3-oxazolidines condensed to an azalide aglycone” (2011)
Converted amounts (≈) assume the structure as drawn.

Tests used:
Staphylococcus aureus = experiment: Antimicrobial activity against Staphylococcus aureus after 24 hrs by microdilution method; assay type: functional
Streptococcus pneumoniae = experiment: Antimicrobial activity against Streptococcus pneumoniae after 24 hrs by microdilution method; assay type: functional
Streptococcus pyogenes = experiment: Antimicrobial activity against Streptococcus pyogenes after 24 hrs by microdilution method; assay type: functional
Moraxella catarrhalis = experiment: Antimicrobial activity against Moraxella catarrhalis after 24 hrs by microdilution method; assay type: functional
Haemophilus influenzae = experiment: Antimicrobial activity against Haemophilus influenzae after 24 hrs by microdilution method; assay type: functional
Saccharomyces cerevisiae = experiment: Toxicity in Saccharomyces cerevisiae after 24 hrs by microdilution method; assay type: functional, organism-based

Structure (SMILES) | MIC (Staphylococcus aureus) [µg/mL] | MIC (Streptococcus pneumoniae) [µg/mL] | MIC (Streptococcus pyogenes) [µg/mL] | MIC (Moraxella catarrhalis) [µg/mL] | MIC (Haemophilus influenzae) [µg/mL] | Activity (Saccharomyces cerevisiae)
CC[C@H]1OC(=O)[C@H](C)[C@@]2(O)O[C@@](C)(C[C@@H](C)CN3/C(=N\C(C)C)O[C@H]([C@H]3C)[C@]1(C)O)[C@H](O[C@@H]1O[C@H](C)C[C@H](N(C)C)[C@H]1O)[C@H]2C | > 64 | 16 (≈ 24.9 µM) | 32 (≈ 49.9 µM) | 32 (≈ 49.9 µM) | > 64 | Not toxic
CC[C@H]1OC(=O)[C@H](C)[C@@H](O[C@@H]2C[C@@](C)(OC)[C@@H](O)[C@H](C)O2)[C@H](C)[C@@H](O[C@@H]2O[C@H](C)C[C@H](N(C)C)[C@H]2O)[C@](C)(OC)C[C@@H](C)CN2/C(=N\C(C)C)O[C@H]([C@H]2C)[C@]1(C)O | 16 (≈ 19.6 µM) | 0.5 (≈ 0.613 µM) | 1 (≈ 1.23 µM) | 2 (≈ 2.45 µM) | 64 (≈ 78.4 µM) | Not toxic
CC[C@H]1OC(=O)[C@H](C)C(=O)[C@H](C)[C@@H](O[C@@H]2O[C@H](C)C[C@H](N(C)C)[C@H]2O)[C@](C)(OC)C[C@@H](C)CN2/C(=N\Cc3ccccc3)O[C@H]([C@H]2C)[C@]1(C)O | > 64 | 2 (≈ 2.84 µM) | 8 (≈ 11.4 µM) | 8 (≈ 11.4 µM) | > 64 | Not toxic
CC[C@H]1OC(=O)[C@H](C)[C@@H](O[C@@H]2C[C@@](C)(OC)[C@@H](O)[C@H](C)O2)[C@H](C)[C@@H](O[C@@H]2O[C@H](C)C[C@H](N(C)C)[C@H]2O)[C@](C)(O)C[C@@H](C)CN2/C(=N\c3cccc4ccccc34)O[C@H]([C@H]2C)[C@]1(C)O | 8 (≈ 9.03 µM) | < 0.125 | 0.25 (≈ 0.282 µM) | 4 (≈ 4.51 µM) | 8 (≈ 9.03 µM) | Not toxic
CC[C@H]1OC(=O)[C@H](C)[C@@H](O)[C@H](C)[C@@H](O[C@@H]2O[C@H](C)C[C@H](N(C)C)[C@H]2O)[C@](C)(O)C[C@@H](C)CN2/C(=N\Cc3ccccc3)O[C@H]([C@H]2C)[C@]1(C)O | 64 (≈ 92.5 µM) | 8 (≈ 11.6 µM) | 8 (≈ 11.6 µM) | 64 (≈ 92.5 µM) | > 64 | Not toxic
CC[C@H]1OC(=O)[C@H](C)[C@@H](O)[C@H](C)[C@@H](O[C@@H]2O[C@H](C)C[C@H](N(C)C)[C@H]2O)[C@](C)(OC)C[C@@H](C)CN2/C(=N\c3cccc4ccccc34)O[C@H]([C@H]2C)[C@]1(C)O | > 64 | 64 (≈ 86.3 µM) | > 64 | 16 (≈ 21.6 µM) | > 64 | Not toxic
CC[C@H]1OC(=O)[C@H](C)[C@@H](O)[C@H](C)[C@@H](O[C@@H]2O[C@H](C)C[C@H](N(C)C)[C@H]2O)[C@](C)(O)C[C@@H](C)CN2/C(=N\C(C)C)O[C@H]([C@H]2C)[C@]1(C)O | > 64 | 4 (≈ 6.21 µM) | 8 (≈ 12.4 µM) | > 64 | > 64 | Not toxic
CC[C@H]1OC(=O)[C@H](C)[C@@H](O[C@@H]2C[C@@](C)(OC)[C@@H](O)[C@H](C)O2)[C@H](C)[C@@H](O[C@@H]2O[C@H](C)C[C@H](N(C)C)[C@H]2O)[C@](C)(O)C[C@@H](C)CN2/C(=N\c3ccc(-c4ccccc4)cc3OC)O[C@H]([C@H]2C)[C@]1(C)O | 2 (≈ 2.12 µM) | < 0.125 | < 0.125 | 8 (≈ 8.49 µM) | 8 (≈ 8.49 µM) | Not toxic

Continued, in another order:

MIC (Staphylococcus aureus) [µg/mL] | MIC (Streptococcus pneumoniae) [µg/mL] | MIC (Streptococcus pyogenes) [µg/mL] | MIC (Moraxella catarrhalis) [µg/mL] | MIC (Haemophilus influenzae) [µg/mL] | Structure (SMILES) | Activity (Saccharomyces cerevisiae)
2 (≈ 2.35 µM) | < 0.125 | < 0.125 | 2 (≈ 2.35 µM) | 16 (≈ 18.8 µM) | CC[C@H]1OC(=O)[C@H](C)[C@@H](O[C@@H]2C[C@@](C)(OC)[C@@H](O)[C@H](C)O2)[C@H](C)[C@@H](O[C@@H]2O[C@H](C)C[C@H](N(C)C)[C@H]2O)[C@](C)(O)C[C@@H](C)CN2/C(=N\Cc3ccccc3)O[C@H]([C@H]2C)[C@]1(C)O | Not toxic
16 (≈ 19.9 µM) | 2 (≈ 2.49 µM) | 2 (≈ 2.49 µM) | 16 (≈ 19.9 µM) | > 64 | CC[C@H]1OC(=O)[C@H](C)[C@@H](O[C@@H]2C[C@@](C)(OC)[C@@H](O)[C@H](C)O2)[C@H](C)[C@@H](O[C@@H]2O[C@H](C)C[C@H](N(C)C)[C@H]2O)[C@](C)(O)C[C@@H](C)CN2/C(=N\C(C)C)O[C@H]([C@H]2C)[C@]1(C)O | Not toxic
> 64 | 32 (≈ 46.4 µM) | 32 (≈ 46.4 µM) | 32 (≈ 46.4 µM) | > 64 | CC[C@H]1OC(=O)[C@H](C)[C@@]2(O)O[C@@](C)(C[C@@H](C)CN3/C(=N\Cc4ccccc4)O[C@H]([C@H]3C)[C@]1(C)O)[C@H](O[C@@H]1O[C@H](C)C[C@H](N(C)C)[C@H]1O)[C@H]2C | Not toxic
16 (≈ 17.8 µM) | 0.5 (≈ 0.555 µM) | 1 (≈ 1.11 µM) | 8 (≈ 8.89 µM) | 32 (≈ 35.5 µM) | CC[C@H]1OC(=O)[C@H](C)[C@@H](O[C@@H]2C[C@@](C)(OC)[C@@H](O)[C@H](C)O2)[C@H](C)[C@@H](O[C@@H]2O[C@H](C)C[C@H](N(C)C)[C@H]2O)[C@](C)(OC)C[C@@H](C)CN2/C(=N\c3cccc4ccccc34)O[C@H]([C@H]2C)[C@]1(C)O | Not toxic
2 (≈ 2.31 µM) | < 0.125 | < 0.125 | 2 (≈ 2.31 µM) | 16 (≈ 18.5 µM) | CC[C@H]1OC(=O)[C@H](C)[C@@H](O[C@@H]2C[C@@](C)(OC)[C@@H](O)[C@H](C)O2)[C@H](C)[C@@H](O[C@@H]2O[C@H](C)C[C@H](N(C)C)[C@H]2O)[C@](C)(OC)C[C@@H](C)CN2/C(=N\Cc3ccccc3)O[C@H]([C@H]2C)[C@]1(C)O | Not toxic
> 64 | > 64 | > 64 | 64 (≈ 87.9 µM) | > 64 | CC[C@H]1OC(=O)[C@H](C)[C@@H](O)[C@H](C)[C@@H](O[C@@H]2O[C@H](C)C[C@H](N(C)C)[C@H]2O)[C@](C)(O)C[C@@H](C)CN2/C(=N\c3cccc4ccccc34)O[C@H]([C@H]2C)[C@]1(C)O | Not toxic
> 64 | > 64 | > 64 | 32 (≈ 40.8 µM) | > 64 | CC[C@H]1OC(=O)[C@H](C)[C@@H](O)[C@H](C)[C@@H](O[C@@H]2O[C@H](C)C[C@H](N(C)C)[C@H]2O)[C@](C)(O)C[C@@H](C)CN2/C(=N\c3ccc(-c4ccccc4)cc3OC)O[C@H]([C@H]2C)[C@]1(C)O | Not toxic
> 64 | 16 (≈ 24.4 µM) | > 64 | 16 (≈ 24.4 µM) | > 64 | CC[C@H]1OC(=O)[C@H](C)C(=O)[C@H](C)[C@@H](O[C@@H]2O[C@H](C)C[C@H](N(C)C)[C@H]2O)[C@](C)(OC)C[C@@H](C)CN2/C(=N\C(C)C)O[C@H]([C@H]2C)[C@]1(C)O | Not toxic
> 64 | 32 (≈ 45.3 µM) | 16 (≈ 22.7 µM) | > 64 | > 64 | CC[C@H]1OC(=O)[C@H](C)[C@@H](O)[C@H](C)[C@@H](O[C@@H]2O[C@H](C)C[C@H](N(C)C)[C@H]2O)[C@](C)(OC)C[C@@H](C)CN2/C(=N\Cc3ccccc3)O[C@H]([C@H]2C)[C@]1(C)O | Not toxic
